Values of other authors as cited in patent US20200000760A1, “METHOD FOR TREATING OVERACTIVE BLADDERS AND A DEVICE FOR STORAGE AND ADMINISTRATION OF TOPICAL OXYBUTYNIN COMPOSITIONS” (Allergan Sales, LLC, priority 2009, published 2020).

Experiments:
[1] = transdermal administration compared to oral administration
[2] = transdermal administration compared to oral administration; remark: listed apart in the source

oxybutynin:desethyloxybutynin ratio in the plasma [1]: reduced
SMILES: CCN(CC)CC#CCOC(=O)C(O)(c1ccccc1)C1CCCCC1 (centres unmarked) [oxybutynin]
adverse events [2]: less adverse events
